Results on 22 molecules are retold here after ChEMBL document CHEMBL1154513, “Design and synthesis of 4-aryl-4-oxobutanoic acid amides as calpain inhibitors” (Bioorg Med Chem Lett, 2009).

The target in the assay is T1, Calpain-1 catalytic subunit (Homo sapiens, UniProt P07384).
T1 sequence (P07384 whole entry): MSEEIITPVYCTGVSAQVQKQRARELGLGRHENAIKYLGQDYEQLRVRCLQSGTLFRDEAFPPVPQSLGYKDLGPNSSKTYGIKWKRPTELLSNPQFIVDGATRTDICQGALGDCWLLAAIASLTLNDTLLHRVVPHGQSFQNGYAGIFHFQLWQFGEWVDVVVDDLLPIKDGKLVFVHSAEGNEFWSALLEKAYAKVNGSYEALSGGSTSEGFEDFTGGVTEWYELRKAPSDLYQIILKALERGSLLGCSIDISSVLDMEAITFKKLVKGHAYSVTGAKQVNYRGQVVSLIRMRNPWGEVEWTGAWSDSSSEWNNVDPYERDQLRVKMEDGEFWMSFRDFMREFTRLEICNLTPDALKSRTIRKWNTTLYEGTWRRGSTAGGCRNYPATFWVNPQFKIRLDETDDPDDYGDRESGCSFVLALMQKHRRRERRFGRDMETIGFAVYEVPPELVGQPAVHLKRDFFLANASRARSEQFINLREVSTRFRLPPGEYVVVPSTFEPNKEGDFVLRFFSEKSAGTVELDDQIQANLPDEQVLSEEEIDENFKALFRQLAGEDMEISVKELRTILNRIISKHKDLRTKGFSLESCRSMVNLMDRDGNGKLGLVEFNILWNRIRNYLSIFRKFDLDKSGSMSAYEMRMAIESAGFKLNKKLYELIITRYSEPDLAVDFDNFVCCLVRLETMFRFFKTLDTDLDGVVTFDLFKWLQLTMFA
In words: Inhibition of human erythrocytes mu-calpain.

What is called IC50 is the midpoint of a concentration-inhibition curve. A lower IC50 goes with higher potency.

The molecule `COc1ccc(CNC(=O)C(=O)[C@H](Cc2ccccc2)NC(=O)CCC(=O)c2cc(OC)ccc2OC)cc1` registered an IC50 of 2.35 µM.
In turn, `COc1ccc(OC)c(CCCC(=O)N[C@@H](Cc2ccccc2)C(=O)C(N)=O)c1` had an IC50 of 1.86 µM.
The same measure for `COc1ccc(C(=O)CCC(=O)N[C@@H](Cc2ccccc2)C(=O)C(=O)NCc2ccccc2)c(OC)c1`: 6.16 µM; for `COCOc1ccccc1C(=O)CCC(=O)N[C@@H](Cc1ccccc1)C(=O)C(=O)NCc1ccccc1`: 4.29 µM.
Under `COc1ccc(OC)c(C(=O)CCC(=O)N[C@@H](Cc2ccccc2)C(=O)C(=O)NCc2ccccc2)c1` stands 3.77 µM.
Under `COc1ccccc1C(=O)CCC(=O)N[C@@H](Cc1ccccc1)C(=O)C(=O)NCc1ccccc1` stands 3.33 µM; under `COc1ccc(C(=O)CCC(=O)N[C@@H](Cc2ccccc2)C(=O)C(=O)NCc2ccccc2)c(O)c1`, 13 µM; under `COc1ccc(OC)c(CCCC(=O)N[C@@H](Cc2ccccc2)C(=O)C(=O)NCc2ccccc2)c1`, 8 µM.
Consider `COc1ccc(OC)c(C(=O)CCC(=O)N[C@@H](Cc2ccccc2)C(=O)C(=O)NCCc2ccccc2)c1`, for which the IC50 amounted to 2.09 µM.
`COc1ccc(OC)c(C(=O)CCC(=O)N[C@@H](Cc2ccccc2)C(=O)C(=O)NCc2ccc(OC)c(OC)c2)c1` displayed an IC50 of 1.64 µM.
Under `COc1ccc(OC)c(C(=O)CCC(=O)N[C@@H](Cc2ccccc2)C(=O)C(N)=O)c1` stands 0.52 µM; under `COCOc1cc(OC)ccc1C(=O)CCC(=O)N[C@@H](Cc1ccccc1)C(=O)C(=O)NCc1ccccc1`, 4.25 µM; under `COc1ccccc1C(=O)CCC(=O)N[C@@H](Cc1ccccc1)C(=O)C(N)=O`, 0.54 µM.
Molecule `COc1ccc(C(=O)CCC(=O)N[C@@H](Cc2ccccc2)C(=O)C(N)=O)c(OC)c1` yielded an IC50 of 1.18 µM.
Regarding `O=C(CCC(=O)c1ccccc1O)N[C@@H](Cc1ccccc1)C(=O)C(=O)NCc1ccccc1`, the IC50 came out at 13.8 µM.
For the molecule `COc1ccc(CCNC(=O)C(=O)[C@H](Cc2ccccc2)NC(=O)CCC(=O)c2cc(OC)ccc2OC)cc1`, 0.95 µM corresponded to half-maximal inhibition (IC50).
Under `O=C(CCC(=O)c1ccc(O)cc1O)N[C@@H](Cc1ccccc1)C(=O)C(=O)NCc1ccccc1` stands 5.73 µM; under `COCOc1ccccc1C(=O)CCC(=O)N[C@@H](Cc1ccccc1)C(=O)C(N)=O`, 0.34 µM.
The same measure for `COc1ccc(OC)c(C(=O)CCC(=O)N[C@@H](Cc2ccccc2)C(=O)C(=O)NCCc2ccc(OC)c(OC)c2)c1`: 2.13 µM; for `NC(=O)C(=O)[C@H](Cc1ccccc1)NC(=O)CCC(=O)c1ccccc1`: 3.2 µM; for `O=C(CCC(=O)c1ccccc1)N[C@@H](Cc1ccccc1)C(=O)C(=O)NCc1ccccc1`: 6.25 µM.
Under `COCOc1cc(OC)ccc1C(=O)CCC(=O)N[C@@H](Cc1ccccc1)C(=O)C(N)=O` stands 0.7 µM.
